Results on 17 compounds are retold here after paper PMC9960827, “Cloning and Characterization of Trypanosoma congolense and T. vivax Nucleoside Transporters Reveal the Potential of P1-Type Carriers for the Discovery of Broad-Spectrum Nucleoside-Based Therapeutics against Animal African Trypanosomiasis” (International Journal of Molecular Sciences, 2023).

The target in one test is TcoAT1. The test is classed as cell-based, Trypanosoma congolense. Particulars: for Ki: 0.05 µM [3H]-adenosine, 10 s, IC50 converted to Ki, read-out: Ki on the transport of [3H]-adenosine; for ΔG0: Gibbs free energy of binding, from Km or Ki; for δ(ΔG0): loss of Gibbs free energy of binding relative to the parent nucleoside. An excerpt: (§1) The information for the T. congolense adenosine transporter (TcoAT1) and four putative T. vivax nucleoside transporters was obtained in the TritrypDB (tritrypdb.org/tritrypdb) genome database. Primers were designed to flank each gene upstream of the 5′ end (forward) and downstream of the 3′ end (reverse) as described (primer sequences in Supplementary Table S2). Following amplification from the genomic DNA of T. congolense or T. vivax, DNA for each extracted gene was ligated into the pNUS-HcN expression vector doubly digested with NdeI using the NEBuilder kit according to the manufacturer’s instructions (New England Biolabs). Construct was transformed into competent E. coli cells, and ligation was confirmed by restriction enzyme digestion of isolated plasmid DNA followed by Sanger sequencing (Source BioScience, Nottingham, UK). Confirmed plasmids were then transfected into L. mexicana cell line in which both NT1 and NT2 were doubly knocked out (SUPKO) and derived from L. mexicana Cas9 [64] as described. Clones grown in medium containing 50 μg/mL neomycin (G418) were collected for further confirmation by PCR with genomic DNA using a forward primer of the transporter gene and a reverse primer of the plasmid.
(§2) Uptake assays using radiolabeled trypanocides and/or nucleosides were carried out as described previously. Briefly, parasite cultures were harvested, washed twice in assay buffer (33 mM HEPES, 98 mM NaCl, 4.6 mM KCl, 0.5 mM CaCl2, 0.07 mM MgSO4, 5.8 mM NaH3PO4, 0.03 mM MgCl2, 23 mM NaHCO3, 14 mM D-glucose, pH 7.3), then resuspended and adjusted to a density of 1 × 10^8 cells/mL in assay buffer. The radiolabeled permeant in the presence or absence of different concentrations of potential inhibitors reconstituted in 100 μL assay buffer was deposited on top of 250 μL oil mix in microcentrifuge tubes; 1 × 10^7 parasites in 100 μL assay buffer were added to the tube and incubated for a pre-determined interval. The reaction was stopped by the addition of 1 mL of a high concentration of ice-cold unlabeled substrate in assay buffer (‘stop solution’) and centrifugation, or by immediate centrifugation at […] as appropriate. The microcentrifuge tubes were flash-frozen, and the bottom of each tube containing the cell pellet was cut off and transferred to a scintillation vial. Cell pellets were lysed in 2% SDS, after which scintillation fluid (Scintlogic U, Lablogic) was added, followed by overnight incubation in the dark. Scintillation was measured in a 300SL (Hidex) scintillation counter (Hidex). All the assays were conducted in triplicate and analysis was carried out using Microsoft Excel and GraphPad Prism. All kinetic parameters were obtained on at least 3 separate occasions.
(§3) The dose-dependent uptake assay allowed for the affinity of nucleoside analogs to different nucleoside transporters to be determined by measuring the extent to which the analogs compete with and inhibit the uptake of radiolabel adenosine. This allowed for the determination of biochemical parameters such as Km and Vmax through the application of the Michaelis–Menten equation V0 = Vmax([substrate]/([substrate] + Km)). The 50% Inhibitory Concentration (IC50) of the purines and pyrimidines and their analogs was determined from non-linear regression to sigmoid curves with variable slope (Prism 8), and the IC50 of the inhibitor and the Km of the labeled permeant were then used to calculate the inhibition constant (Ki) of the analogs through the Cheng–Prusoff equation: Ki = IC50/(1 + (L/Km)), where L denotes the radiolabel concentration. The calculated Ki was in turn used to determine the Gibbs free energy (ΔG^0) of the inhibitor–transporter interaction using the equation: ΔG^0 = -RTln(Ki), where R represents the gas constant and T symbolizes the absolute temperature in Kelvin [104].

Test [1] has as its target T. b. brucei P1 (TbP1/NT2). The following applies: cited from earlier work; for Ki: T. b. brucei bloodstream forms, read-out: Tbb P1 Ki.
The target of test [2] is T. congolense adenosine transporter. As to the kind of experiment: [3H]-adenosine uptake and its inhibition in T. congolense IL3000 bloodstream forms. The test is classed as cell-based, Trypanosoma congolense. Particulars: for Ki: 0.05 µM [3H]-adenosine, 30 s, IC50 converted to Ki, read-out: Ki on the transport of [3H]-adenosine; for ΔG0, Gibbs free energy of interaction: calculated from Km or Ki. As to the method: as §2, §3

In another test the target is TvxNT3 (Trypanosoma vivax, UniProt F9WV62). As to the kind of experiment: cell-based. The test is classed as cell-based. Particulars: for ΔG0: Gibbs free energy of interaction, from Km or Ki; for δ(ΔG0): difference in ΔG0 relative to the parent purine (adenosine or inosine); for remaining activity at 100 µM: read-out: [3H]-adenosine uptake remaining in presence of inhibitor.
Sequence of TvxNT3 (F9WV62 entry or part of it): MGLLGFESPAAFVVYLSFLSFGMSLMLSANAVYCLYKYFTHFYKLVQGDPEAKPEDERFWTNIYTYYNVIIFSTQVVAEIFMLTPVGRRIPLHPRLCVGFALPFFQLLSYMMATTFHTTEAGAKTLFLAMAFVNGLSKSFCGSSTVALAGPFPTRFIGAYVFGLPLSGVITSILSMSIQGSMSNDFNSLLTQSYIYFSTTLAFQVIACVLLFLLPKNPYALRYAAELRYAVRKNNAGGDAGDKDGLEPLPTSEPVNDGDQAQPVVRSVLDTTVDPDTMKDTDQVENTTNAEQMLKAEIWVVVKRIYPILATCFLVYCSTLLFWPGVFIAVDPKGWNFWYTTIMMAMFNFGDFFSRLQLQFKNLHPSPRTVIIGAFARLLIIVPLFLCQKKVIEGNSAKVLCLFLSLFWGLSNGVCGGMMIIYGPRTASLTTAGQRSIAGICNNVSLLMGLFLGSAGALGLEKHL
Text: as §1, §2, §3

Another test has as its system L. mexicana SUPKO. As to the kind of experiment: microbe, parasite or virus in culture. The test is classed as cell-based, Leishmania mexicana. On the procedure: (§4) EC50 values were determined by plotting to an equation for a sigmoid curve with variable slope (GraphPad Prism 8). All values were the average of at least three independent determinations on different days.

For another test, the system named is L. mexicana SUPKO+TcoAT1. As to the kind of experiment: microbe, parasite or virus in culture. The test is classed as cell-based, Leishmania mexicana. Particulars: for EC50: read-out: SUPKO+TcoAT1 EC50. On the procedure: as §4
A further test has as its system L. mexicana SUPKO+TvxNT3. Description: microbe, parasite or virus in culture. It is filed as cell-based, Leishmania mexicana. Particulars: for EC50: read-out: SUPKO+TvxNT3 EC50. On the procedure: as §4
The subject of a further test is L. mexicana Cas9. As to the kind of experiment: Resazurin drug sensitivity assay, LmexCas9. It is filed as cell-based, Leishmania mexicana. Particulars: read-out: LmexCas9 EC50. On the procedure: as §4
On the technique in general: Resazurin is reduced to fluorescent resorufin, in cell work by metabolically active cells.

The mark [3] stands for this setting: resazurin, promastigotes, read-out: SUPKO EC50.
Setting [4] is: Resistance Factor relative to SUPKO.

Where “and” joins values, the source holds several entries; their conditions need not be identical. Equal entries are not always repeated. Where two headings read alike, the source gives them in different places.

Take `Nc1ccn([C@@H]2O[C@H](CO)[C@@H](O)[C@H]2O)c(=O)n1` [Cytidine]: at TcoAT1, the Ki (usually the dissociation constant of the complex between target and ligand, obtained from inhibition or displacement) was 1580 ± 69.2 µM; the ΔG0 was -3.82 kcal/mol; the “δ(ΔG0)” value amounted to 4.878 kcal/mol. The inhibition constant (Ki) in test [1] was > 250 µM. Moreover, in test [2], the Ki stood at 1180 ± 148 µM and the “ΔG0, Gibbs free energy of interaction” value is -3.99 kcal/mol. For the same compound, the “Ki values fold higher than those for the purines” value in test [2] (inhibition of adenosine uptake) is reported as > 90 fold.

For the compound `Nc1nccc2c1ncn2[C@@H]1O[C@H](CO)[C@@H](O)[C@H]1O` [3-deazaadenosine], on TcoAT1, the Ki is 138 ± 37 µM; the ΔG0 was -5.26 kcal/mol; the “δ(ΔG0)” value was 3.44 kcal/mol and 3.435 kcal/mol.

Take `OC[C@H]1O[C@@H](n2cnc3c(S)ncnc32)[C@H](O)[C@@H]1O` [6-thioinosine]: the ΔG0 at TvxNT3 was -7.36 kcal/mol.

For the compound `Cc1ccc(C(=O)Nc2ccc(S(=O)(=O)O)c3cc(S(=O)(=O)O)cc(S(=O)(=O)O)c23)cc1NC(=O)c1cccc(NC(=O)Nc2cccc(C(=O)Nc3cc(C(=O)Nc4ccc(S(=O)(=O)O)c5cc(S(=O)(=O)O)cc(S(=O)(=O)O)c45)ccc3C)c2)c1` [suramin, reference compound], the EC50 (as a rule, the concentration giving half of the maximal effect) was > 100 µM in the test on L. mexicana SUPKO (Leishmania mexicana, read-out: SUPKO EC50, resazurin, promastigotes); > 100 µM in the test with L. mexicana SUPKO+TcoAT1 (Leishmania mexicana); > 100 µM with L. mexicana SUPKO+TvxNT3 (Leishmania mexicana); > 100 µM in the test with L. mexicana Cas9 (Leishmania mexicana).

Take `C[C@H]1O[C@@H](n2cnc3c(N)ncnc32)[C@H](O)[C@@H]1O` [5′-deoxyadenosine]: at TcoAT1, the Ki came to 0.45 ± 0.08 µM, the ΔG0 was -8.65 kcal/mol and the “δ(ΔG0)” value was found to be 0.043 kcal/mol. In addition, on TvxNT3, the ΔG0 is -8.13 kcal/mol and the “δ(ΔG0)” value worked out at 0.151 kcal/mol.

`OC[C@H]1O[C@@H](n2cnc3c(O)nccc32)[C@H](O)[C@@H]1O` [3-deazainosine]: the ΔG0 on TvxNT3 was -6.12 kcal/mol.

As for `Nc1ncnc2[nH]cnc12` [Adenine], the inhibition constant Ki on TcoAT1 (listed as ADE) amounted to 786 µM. Besides, on TcoAT1, the Ki is 761 ± 103 µM, the ΔG0 was -4.25 kcal/mol and the “δ(ΔG0)” value turned out to be 4.446 kcal/mol. Besides, at TvxNT3, the ΔG0 is -7.658 kcal/mol, the “δ(ΔG0)” value was -0.32 kcal/mol and the remaining activity at 100 µM is < 25%. Moreover, on TvxNT3 (listed as adenine), the “δ(ΔG0)” value is 0.32 kcal/mol.

As for `NCCS[As](SCCN)c1ccc(Nc2nc(N)nc(N)n2)cc1` [melarsomine, reference compound], the concentration giving a half-maximal response (EC50) in the test with L. mexicana SUPKO (setting [3]) is > 100 µM; in the test with L. mexicana SUPKO+TcoAT1 (resazurin, promastigotes), > 100 µM; in the test on L. mexicana SUPKO+TvxNT3 (resazurin, promastigotes), > 100 µM; in the test with L. mexicana Cas9 (resazurin, promastigotes), > 100 µM.

In the case of `OC[C@H]1O[C@@H](n2cnc3cncnc32)[C@H](O)[C@@H]1O` [Nebularine], at TvxNT3, the ΔG0 was -7.27 kcal/mol and the “δ(ΔG0)” value was -0.703 kcal/mol. The “δ(ΔG0)” value at TvxNT3 (listed as nebularine) worked out at 0.693 kcal/mol.

For `Nc1ncnc2c1c(-c1ccccc1)cn2C1OC(CO)C(O)C1O` (centres unmarked) [TH1012, 7-phenyltubercidin], at TcoAT1, the Ki came out at 146 ± 58 µM and the ΔG0 was -5.23 kcal/mol.

Regarding `Nc1ncnc2c1ncn2[C@H]1C[C@H](O)[C@@H](CO)O1` [2′-deoxyadenosine], at TcoAT1, the Ki amounted to 0.5 ± 0.07 µM, the ΔG0 was -8.6 kcal/mol and the “δ(ΔG0)” value came out at 0.105 kcal/mol. At TvxNT3, the ΔG0 is -8.15 kcal/mol and the “δ(ΔG0)” value was 0.167 kcal/mol.

`Nc1ncnc2c1ncn2[C@H]1CC[C@@H](CO)O1` [2′,3′-dideoxyadenosine]: at TcoAT1, the Ki came to 51.9 ± 2.6 µM, the ΔG0 is -5.83 kcal/mol and the “δ(ΔG0)” value amounted to 2.856 kcal/mol.

`O=c1[nH]cnc2nc[nH]c12` [Hypoxanthine]: at TcoAT1, the Ki came to 61.2 ± 3.26 µM, the ΔG0 was -5.74 kcal/mol and the “δ(ΔG0)” value came to 2.792 kcal/mol. On TvxNT3, the ΔG0 is -7.851 kcal/mol, the “δ(ΔG0)” value was -1.78 kcal/mol and the remaining activity at 100 µM was < 25%. The “δ(ΔG0)” value on TvxNT3 (listed as hypoxanthine) came out at 1.34 kcal/mol.

Regarding `COc1ncnc2c1ccn2[C@@H]1O[C@H](CO)[C@@H](O)[C@H]1O` [CL4510, 6-methoxy-7-deazapurine riboside], the Ki was determined as 226 ± 26 µM on TcoAT1 and 16.1 ± 2.8 µM at TvxNT3 (50 nM [3H]-adenosine, 90 s, IC50 converted to Ki, read-out: Ki on the transport of [3H]-adenosine). Besides, the ΔG0 is -4.97 kcal/mol in the test with TcoAT1 and -6.55 kcal/mol on TvxNT3. In the test with L. mexicana SUPKO (Resistance Factor = EC50(SUPKO)/EC50(Cas9)), the “SUPKO RF (Cas9)” value was determined as 5.84. In addition, the EC50 was 2.3 µM and 2.28 µM in the test with L. mexicana SUPKO (setting [3]); 2.2 ± 0.03 µM in the test with L. mexicana SUPKO+TcoAT1 (resazurin, promastigotes); 2.05 ± 0.04 µM in the test on L. mexicana SUPKO+TvxNT3 (resazurin, promastigotes); 0.39 ± 0.05 µM in the test on L. mexicana Cas9 (resazurin, promastigotes). Further, the “SUPKO+TcoAT1 RF (SUPKO)” value with L. mexicana SUPKO+TcoAT1 (setting [4]) worked out at 1.03. Further, in the test on L. mexicana SUPKO+TvxNT3 (setting [4]), the “SUPKO+TvxNT3 RF (SUPKO)” value stood at 1.1.

On to `OC[C@@H]1CC[C@H](n2cnc3c(O)ncnc32)O1` [2′,3′-dideoxyinosine], for which, on TcoAT1, the Ki is 85.4 ± 7.1 µM, the ΔG0 was -5.54 kcal/mol and the “δ(ΔG0)” value was found to be 2.99 kcal/mol.

`Nc1nc2c(ncn2[C@@H]2O[C@H](CO)[C@@H](O)[C@H]2O)c(=O)[nH]1` [Guanosine]: at TcoAT1, the inhibition constant Ki was determined as 0.8 ± 0.09 µM, the ΔG0 was -8.32 kcal/mol and the “δ(ΔG0)” value was determined as 0.387 kcal/mol. Besides, the remaining activity at 100 µM at TvxNT3 (100 µM inhibitor, 50 nM [3H]-adenosine) was < 25%. Moreover, at TvxNT3, the ΔG0 is -7.995 kcal/mol and the “δ(ΔG0)” value came out at 0.017 kcal/mol. For the same compound, in test [1], the Ki is 1.8 ± 0.3 µM and the “Tbb P1 ΔG0” value was -7.82 kcal/mol. Also, in test [2], the Ki came to 1.06 ± 0.07 µM and the “ΔG0, Gibbs free energy of interaction” value was -8.15 kcal/mol.

Take `Nc1ccnc2c1ncn2[C@@H]1O[C@H](CO)[C@@H](O)[C@H]1O` [1-deazaadenosine]: at TcoAT1, the Ki stood at 1.03 ± 0.34 µM, the ΔG0 was -8.17 kcal/mol and the “δ(ΔG0)” value came out at 0.535 kcal/mol.
